In patent publication US20240294551A1 (AMGEN INC., priority 2022, published 2024):

Assays:
[1] = target: His-tagged KRAS G12D protein (Homo sapiens (Human), UniProt P01116, G12D); assay: KRAS G12D TR-FRET Assay; format: binding; conditions: read-out: KRAS G12D Binding IC50
In short: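 His-tagged KRAS G12D (diluted to 20 nM in pH 7.4 HEPES buffer with 10 mM MgCl2 and 10 μM GDP) was preincubated with titrated compound for 30 min at room temperature. Biotinylated KRPep-2d peptide (diluted to 20 nM) was then added for 1 h, and displacement was monitored by TR-FRET.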

[2] = target: GDP-bound KRAS protein (aa 1-169), containing both G12D and C118A amino acid substitutions (Homo sapiens (Human), UniProt P01116, C118A/G12D); assay: KRAS G12D Coupled Nucleotide Exchange Assay; format: biochemical; conditions: read-out: KRAS G12D Coupled Exchange IC50
[3] = tested on: Phosphorylation of ERK1/2 in AsPC-1 cells; assay: Phospho-ERK1/2 MSD Assay; format: cell-based, human; conditions: Homo sapiens, ASPC1, 2 h, read-out: 2 h p-ERK (AsPC-1 cells), IC50
In short: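 Read-out: MSD electrochemiluminescent detection of phosphorylated ERK1/2 in whole-cell lysates, fitted to a 4-parameter logistic curve for IC50. Prior to lysis, AsPC-1 cells (25,000 per well) received a 2 h compound dose-response at 37 °C.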

AsPC-1 cells = assay: AsPC-1 CTG Assay (CellTiter-Glo cell viability); format: cell-based, human; conditions: Homo sapiens, ASPC1, 72 h, AsPC-1, 72 h; first value of the cell; read-out: G12D/C/V Cell Proliferation CTG (72 h) AsPC-1
In short: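 Human pancreatic AsPC-1 or colon SW620 cells in RPMI 1640 with 10% FBS, seeded overnight, then exposed to serially diluted compound for 72 h at 37 °C. CellTiter-Glo luminescence normalized to DMSO control; IC50 from a 4-parameter logistic model.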

Chain of GDP-bound KRAS protein (aa 1-169), containing both G12D and C118A amino acid substitutions (P01116 other isoform, or with tags, fused parts or gaps G12D/C118A): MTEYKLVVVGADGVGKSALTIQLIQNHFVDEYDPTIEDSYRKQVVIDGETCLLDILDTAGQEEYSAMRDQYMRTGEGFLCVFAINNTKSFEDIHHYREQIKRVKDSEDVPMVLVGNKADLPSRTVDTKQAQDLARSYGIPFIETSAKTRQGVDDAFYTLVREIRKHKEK
Chain of His-tagged KRAS G12D protein (P01116 other isoform, or with tags, fused parts or gaps G12D): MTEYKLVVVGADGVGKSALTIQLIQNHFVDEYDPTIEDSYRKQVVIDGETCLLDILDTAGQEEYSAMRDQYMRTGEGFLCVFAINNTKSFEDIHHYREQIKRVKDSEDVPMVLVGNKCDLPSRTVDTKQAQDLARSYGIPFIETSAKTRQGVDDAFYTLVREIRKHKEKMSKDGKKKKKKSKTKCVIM

Compound | IC50 [1] | IC50 [2] | IC50 [3] | IC50 (AsPC-1 cells)
Fc1c2ncc3c(nc(OC[C@@]45CCCN4C[C@H](F)C5)nc13)N1CC[C@@H](COCCCCc3c(Cl)cc4[nH]ncc4c3-2)C1 [Example 254, (17R)-9-chloro-29-fluoro-23-(((2R,7aS)-2-fluorotetrahydro-1H-pyrrolo[1,2-a]pyrrol-7a(5H)-yl)methoxy)-15-oxa-5,6,20,22,24,28-hexaazahexacyclo[23.3.1.1~17,20~.0~2,10~.0~3,7~.0~21,26~]triaconta-1(29),2,4,7,9,21,23,25,27-nonaene] | 19 nM | 12 nM | 545 nM | 3970 nM
O=C1N[C@@H]2CCCCN(C2)c2nc(OC[C@@]34CCCN3C[C@H](F)C4)nc3c(F)c(ncc23)-c2c(c(Cl)cc3[nH]ncc23)CCCO1 [Example 256, (26R)-18-chloro-32-fluoro-4-(((2R,7aS)-2-fluorotetrahydro-1H-pyrrolo[1,2-a]pyrrol-7a(5H)-yl)methoxy)-23-oxa-1,3,5,9,14,15,25-heptaazahexacyclo[24.4.1.1~6, 10~.0~2,7~.0~11,19~.0~12,16~]dotriaconta-2,4,6(32),7,9,11,13,16,18-nonaen-24-one] | 4 nM | 5 nM | 9.4 nM | 229 nM
Fc1c2ncc3c(nc(OC[C@@]45CCCN4C[C@H](F)C5)nc13)N1CCOCC(C1)Cn1ncc(n1)/C=C\c1c(Cl)cc3[nH]ncc3c1-2 (stereo partly drawn) [Example 258, (20Z)-18-chloro-34-fluoro-4-(((2R,7aS)-2-fluorotetrahydro-1H-pyrrolo[1,2-a]pyrrol-7a(5H)-yl)methoxy)-29-oxa-1,3,5,9,14,15,24,25,33-nonaazaheptacyclo[25.4.1.1~6,10~.1~22,25~.0~2,7~.0~11,19~.0~12,16~]tetratriaconta-2,4,6,8,10(34),11,13,16,18,20,22(33),23-dodecaene] | 13 nM | 6 nM | 82.9 nM | 996 nM
CN(C)CC1(COc2nc3c4cnc(c(F)c4n2)-c2c(c(Cl)cc4[nH]ncc24)CCCCC(=O)N2CC[C@@H]4CCN3C[C@@H]42)CC1 [Example 268, (28S,32R)-18-chloro-4-((1-((dimethylamino)methyl)cyclopropyl)methoxy)-33-fluoro-1,3,5,9,14,15,25-heptaazaheptacyclo[23.5.2.1~6,10~.0~2,7~.0~11,19~.0~12,16~.0~28,32~]tritriaconta-2,4,6,8,10(33),11,13,16,18-nonaen-24-one] | 7 nM | 4 nM | 246 nM | 1350 nM
O=C1CCCCc2c(Cl)cc3[nH]ncc3c2-c2ncc3c(nc(OC[C@@]45CCCN4C[C@H](F)C5)nc3c2F)N2CC3CCN1C(C3)C2 (stereo partly shown) [Example 269] | 16 nM | 11 nM | 250 nM | 606 nM
O=C1COCCCc2c(Cl)cc3[nH]ncc3c2-c2ncc3c(nc(OC[C@@]45CCCN4C[C@H](F)C5)nc3c2F)N2CCCC[C@H](C2)N1 [Example 272, (27R)-18-chloro-33-fluoro-4-(((2R,7aS)-2-fluorotetrahydro-1H-pyrrolo[1,2-a]pyrrol-7a(5H)-yl)methoxy)-23-oxa-1,3,5,9,14,15,26-heptaazahexacyclo[25.4.1.1~6,10~.0~2,7~.0~11,19~.0~12,16~]tritriaconta-2,4,6,8,10(33),11,13,16,18-nonaen-25-one] | 11 nM | 3 nM | 250 nM | 1760 nM
O=C1CCCCc2c(Cl)cc3[nH]ncc3c2-c2ncc3c(nc(OC[C@@]45CCCN4C[C@H](F)C5)nc3c2F)N2CCC[C@]3(C2)C[C@H](C3)N1 [Example 273, (1S,3R)-11-chloro-33-fluoro-25-(((2R,7aS)-2-fluorotetrahydro-1H-pyrrolo[1,2-a]pyrrol-7a(5H)-yl)methoxy)-4,14,15,20,24,26,28-heptaazaheptacyclo[26.3.1.1~1,3~.1~19,23~.0~10,18~.0~13,17~.0~22,27~]tetratriaconta-10,12,15,17,19(33),20,22,24,26-nonaen-5-one] | 3 nM | 2 nM | 1100 nM | 5000 nM
O=C1CCCc2c(Cl)cc3[nH]ncc3c2-c2ncc3c(nc(OC[C@@]45CCCN4C[C@H](F)C5)nc3c2F)N2CCCC3(CC(C3)N1)C2 [Example 274] | 32 nM | 16 nM | 1780 nM | 5000 nM

Next, values leading:

IC50 [1] | IC50 [2] | IC50 [3] | IC50 (AsPC-1 cells) | Compound
10 nM | 3 nM | 99 nM | 475 nM | Cc1cc2[nH]ncc2c2c1CCCCC(=O)N[C@]1(C)CCCCN(C1)c1nc(OC[C@@]34CCCN3C[C@H](F)C4)nc3c(F)c-2ncc13 [Example 280, (26R)-32-fluoro-4-(((2R,7aS)-2-fluorotetrahydro-1H-pyrrolo[1,2-a]pyrrol-7a(5H)-yl)methoxy)-18,26-dimethyl-1,3,5,9,14,15,25-heptaazahexacyclo[24.4.1.1~6,10~.0~2,7~.0~11,19~.0~12,16~]dotriaconta-2,4,6,8,10(32),11,13,16,18-nonaen-24-one]
5 nM | 2 nM | 41.3 nM | 788 nM | O=C1N[C@@H]2C[C@H](O)CN(C2)c2nc(OC[C@@]34CCCN3C[C@H](F)C4)nc3c(F)c(ncc23)-c2c(c(Cl)cc3[nH]ncc23)CCCO1 [Example 284, (17R,19S)-9-chloro-30-fluoro-24-(((2R,7aS)-2-fluorotetrahydro-1H-pyrrolo[1,2-a]pyrrol-7a(5H)-yl)methoxy)-19-hydroxy-14-oxa-5,6,16,21,23,25,29-heptaazahexacyclo[24.3.1.1~17,21~.0~2,10~.0~3,7~.0~22,27~]hentriaconta-1(30),2,4,7,9,22,24,26,28-nonaen-15-one]
7 nM | 2 nM | 102 nM | 427 nM | O=C1NCCCc2c(Cl)cc3[nH]ncc3c2-c2ncc3c(nc(OC[C@@]45CCCN4C[C@H](F)C5)nc3c2F)N2CCCC[C@H](C2)O1 [Example 288]
10 nM | 6 nM | 110 nM | 613 nM | O=C1N[C@H]2C[C@@]3(CCCN(C3)c3nc(OC[C@@]45CCCN4C[C@H](F)C5)nc4c(F)c(ncc34)-c3c(c(Cl)cc4[nH]ncc34)CCO1)C2 [Example 289, 10-chloro-32-fluoro-24-(((2R,7aS)-2-fluorotetrahydro-1H-pyrrolo[1,2-a]pyrrol-7a(5H)-yl)methoxy)-6-oxa-4,13,14,19,23,25,27-heptaazaheptacyclo[25.3.1.1~1,3~.1~18,22~.0~9,17~.0~12,16~.0~21,26~]tritriaconta-9,11,14,16,18(32),19,21,23,25-nonaen-5-one]
4 nM | 2 nM | 17.1 nM | 178 nM | Cc1cc2[nH]ncc2c2c1CCCOC(=O)N[C@]1(C)CCCCN(C1)c1nc(OC[C@@]34CCCN3C[C@H](F)C4)nc3c(F)c-2ncc13 [Example 292, (26R)-32-fluoro-4-(((2R,7aS)-2-fluorotetrahydro-1H-pyrrolo[1,2-a]pyrrol-7a(5H)-yl)methoxy)-18,26-dimethyl-23-oxa-1,3,5,9,14,15,25-heptaazahexacyclo[24.4.1.1~6,10~.0~2,7~.0~11,19~.0~12,16~]dotriaconta-2,4,6(32),7,9,11,13,16,18-nonaen-24-one]
7 nM | 3 nM | 91.3 nM | 592 nM | Fc1c2ncc3c(nc(OC[C@@]45CCCN4C[C@H](F)C5)nc13)N1CCOC[C@H](C1)c1cnn(n1)CCCc1c(Cl)cc3[nH]ncc3c1-2 [Example 298, (1R)-10-chloro-33-fluoro-24-(((2R,7aS)-2-fluorotetrahydro-1H-pyrrolo[1,2-a]pyrrol-7a(5H)-yl)methoxy)-30-oxa-4,5,13,14,19,23,25,27,34-nonaazaheptacyclo[25.4.1.1~2,5~.1~18,22~.0~9,17~.0~12,16~.0~21,26~]tetratriaconta-2(34),3,9,11,14,16,18(33),19,21,23,25-undecaene]
5 nM | 3 nM | 60.5 nM | 954 nM | O=C1N[C@@H]2CCCCN(C2)c2nc(OC[C@@]34CCCN3C[C@H](F)C4)nc3c(F)c(ncc23)-c2c3c(cc4[nH]ncc24)CC[C@H]3CCO1 [Example 301, (16R,22S)-34-fluoro-8-(((2R,7aS)-2-fluorotetrahydro-1H-pyrrolo[1,2-a]pyrrol-7a(5H)-yl)methoxy)-19-oxa-3,7,9,11,17,28,29-heptaazaheptacyclo[20.9.1.1~2,6~.1~11,16~.0~5,10~.0~25,32~.0~27,31~]tetratriaconta-1(31),2(34),3,5,7,9,25(32),26,29-nonaen-18-one]
6 nM | 3 nM | 16.3 nM | 22 nM | C[C@@]12COCCN(C1)c1nc(OC[C@H]3CC[C@@H]4COCCN43)nc3c(F)c(ncc13)-c1c(c(Cl)cc3[nH]ncc13)CCCOC(=O)O2 [Example 308, (26S)-18-chloro-32-fluoro-4-((6R,8aR)-hexahydro-1H-pyrrolo[2,1-c][1,4]oxazin-6-ylmethoxy)-26-methyl-23,25,28-trioxa-1,3,5,9,14,15-hexaazahexacyclo[24.4.1.1~6,10~.0~2,7~.0~11,19~.0~12,16~]dotriaconta-2,4,6,8,10(32),11,13,16,18-nonaen-24-one]
